Results published in the supplement of paper PMC10307832.

Key:
Assay in all cases: relative viability (nuclei count vs DMSO), 5 days (fraction); higher = more cells survive
[1] = compound: CCc1cnn2c(NCc3ccc[n+]([O-])c3)cc(N3CCCC[C@H]3CCO)nc12 [Dinaciclib] + CC(C)C[C@H](NC(=O)[C@H](Cc1ccccc1)NC(=O)c1cnccn1)B(O)O [Bortezomib] (partner 0.002 µM)
How it was run: (§1)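 Medians of duplicate plates are given as relative viability. That measure is the nuclei count in treated wells divided by the count in vehicle wells. Counts were taken on 4× images of lung cancer cell lines in 1536-well plates, 5 days after pin-tool dosing the day after seeding with one drug alone or a fixed anchor-drug dose plus five library-drug doses (not always all listed) in √10 steps.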

[2] = compound: CCc1cnn2c(NCc3ccc[n+]([O-])c3)cc(N3CCCC[C@H]3CCO)nc12 [Dinaciclib] + COc1cccc2cc(-c3nc([C@H]4CC[C@H](C(=O)O)CC4)n4ncnc(N)c34)[nH]c12 [OSI-027] (partner 0.5 µM)
How it was run: as §1

[3] = compound: CCc1cnn2c(NCc3ccc[n+]([O-])c3)cc(N3CCCC[C@H]3CCO)nc12 [Dinaciclib] + C[C@@H](Oc1cc(-c2cnn(C3CCNCC3)c2)cnc1N)c1c(Cl)ccc(F)c1Cl [Crizotinib] (partner 1 µM)
How it was run: as §1

[4] = compound: CCc1cnn2c(NCc3ccc[n+]([O-])c3)cc(N3CCCC[C@H]3CCO)nc12 [Dinaciclib] + Nc1nc2[nH]cc(CCc3ccc(C(=O)N[C@@H](CCC(=O)O)C(=O)O)cc3)c2c(=O)[nH]1 [Pemetrexed] (partner 0.2 µM)
How it was run: as §1

[5] = compound: CCc1cnn2c(NCc3ccc[n+]([O-])c3)cc(N3CCCC[C@H]3CCO)nc12 [Dinaciclib] + Nc1ncn([C@H]2C[C@H](O)[C@@H](CO)O2)c(=O)n1 [Decitabine] (partner 2 µM)
How it was run: as §1

| Cell Line | relative viability ([1]; first compound 0.009487 µM) | relative viability ([1]; first compound 0.03 µM) | relative viability ([1]; first compound 0.09487 µM) | relative viability ([1]; first compound 0.3 µM) | relative viability ([2]; first compound 0.009487 µM) | relative viability ([2]; first compound 0.03 µM) | relative viability ([2]; first compound 0.09487 µM) | relative viability ([2]; first compound 0.3 µM) | relative viability ([3]; first compound 0.009487 µM) | relative viability ([3]; first compound 0.03 µM) | relative viability ([3]; first compound 0.09487 µM) | relative viability ([3]; first compound 0.3 µM) | relative viability ([4]; first compound 0.009487 µM) | relative viability ([4]; first compound 0.03 µM) | relative viability ([4]; first compound 0.09487 µM) | relative viability ([4]; first compound 0.3 µM) | relative viability ([5]; first compound 0.009487 µM) | relative viability ([5]; first compound 0.03 µM) | relative viability ([5]; first compound 0.09487 µM) | relative viability ([5]; first compound 0.3 µM) |
| --- | --- | --- | --- | --- | --- | --- | --- | --- | --- | --- | --- | --- | --- | --- | --- | --- | --- | --- | --- | --- |
| EKVX | 1.02 | 0.451 | 0.109 | 0.149 | 0.694 | 0.59 | 0.204 | 0.105 | 0.749 | 0.454 | 0.103 | 0.118 | 0.35 | 0.267 | 0.122 | 0.123 | 0.388 | 0.196 | 0.136 | 0.123 |
| EMC-BAC-2 | 0.978 | 0.779 | 0.137 | 0.148 | 0.353 | 0.188 | 0.207 | 0.217 | 0.71 | 0.187 | 0.146 | 0.15 | 0.451 | 0.381 | 0.288 | 0.259 | 0.991 | 0.26 | 0.22 | 0.24 |
| EPLC-272H | 0.89 | 0.57 | 0.0541 | 0.0535 | 0.288 | 0.152 | 0.0567 | 0.0523 | 0.853 | 0.484 | 0.0554 | 0.0387 | 0.189 | 0.0576 | 0.0509 | 0.0711 | 0.36 | 0.088 | 0.0389 | 0.0501 |
| H3255 | 0.734 | 0.227 | 0.15 | 0.169 | 0.593 | 0.394 | 0.279 | 0.226 | 0.842 | 0.194 | 0.173 | 0.197 | 0.633 | 0.423 | 0.227 | 0.213 | 0.642 | 0.237 | 0.157 | 0.147 |
| HARA | 0.888 | 0.0756 | 0.0605 | 0.0587 | 0.532 | 0.064 | 0.04 | 0.0478 | 0.717 | 0.103 | 0.0536 | 0.0685 | 0.24 | 0.172 | 0.122 | 0.0976 | 0.437 | 0.205 | 0.135 | 0.101 |
| HCC-15 | 0.628 | 0.106 | 0.0945 | 0.0993 | 0.596 | 0.113 | 0.0869 | 0.107 | 0.618 | 0.098 | 0.0953 | 0.0947 | 0.217 | 0.122 | 0.128 | 0.125 | 0.521 | 0.139 | 0.13 | 0.129 |
| HCC-44 | 0.883 | 0.115 | 0.106 | 0.102 | 0.286 | 0.208 | 0.159 | 0.17 | 0.741 | 0.133 | 0.118 | 0.112 | 0.665 | 0.695 | 0.388 | 0.351 | 0.804 | 0.406 | 0.344 | 0.317 |
| HCC-78 | 0.61 | 0.169 | 0.133 | 0.122 | 0.349 | 0.347 | 0.205 | 0.193 | 0.352 | 0.181 | 0.108 | 0.137 | 0.895 | 0.91 | 0.858 | 0.927 | 0.612 | 0.32 | 0.206 | 0.205 |
